Experimental data reported in article PMC6332004, “Transport of Twelve Coumarins from Angelicae Pubescentis Radix across a MDCK-pHaMDR Cell Monolayer—An in Vitro Model for Blood-Brain Barrier Permeability” (Molecules, 2015).
Like-named read-outs stand apart in the source and are kept apart here.

Tests used:
[1] = Cell accumulation and total recovery of coumarins in the bidirectional transport experiment; details: dog
Method: (§1) 10 mM stock solutions of test compounds were prepared in DMSO and diluted with HBSS to the desired concentrations before transport experiments. HBSS (pH 7.4) was used as a transport medium. After washing the MDCK-pHaMDR cell monolayer twice with prewarmed HBSS medium, HBSS medium was preserved to prepare samples of the calibration curves. Then the experiments were carried out by replacing the transport medium in the AP side (0.5 mL, for absorption transport) or BL side (1.5 mL, for efflux transport) with test compounds (50 µM). The plates were shaked at 55 rpm for 90 min at 37 °C in a water bath. Samples were collected from both sides of the cell monolayer, then immediately frozen, lyophilized and preserved below −20 °C. To measure the intracellular accumulation amounts of different coumarins, the cell monolayers were extracted after transport assays with 200 µL 70% MeOH (v/v) for 20 min, then centrifuged and preserved below −20 °C.
(§2) To determine the corresponding coumarins, the lyophilized permeation samples were dissolved in a suitable volume of MeOH, thoroughly vortex-mixed for 1 min and then centrifuged at 16,000× g for 20 min. An aliquot of 20 µL supernatant solution was used for HPLC assay. To measure the intracellular accumulation amount of different coumarins, the aliquots of cell extractions were determined too.
(§3) CA (Cell accumulation): the percent of the coumarins that accumulated in the cell monolayer after transport
(§4) experiment relative to the initial amount. TR (Total recovery): the percent of the total amount of the coumarins
(§5) recovered from both sides of the inserts and intracellular accumulation in MDCK-pHaMDR cell monolayer
(§6) relative to the initial amount. N.D.: not detected. The concentration of all coumarins was 50 µM.
(§7) incubation time was up to 90 min. Data are means ± S.D. (n = 6).

[2] = in vitro; details: dog, MDCK-MDR1, pH 7.4
Method: as §1
(§8) An Agilent 1100 series HPLC system (Agilent Technologies, Palo Alto, CA, USA) was used with an analytical Diamonsil® C18 column (250 mm × 4.6 mm, 5 µm, Dikma, Beijing, China) equipped with a C18 guard column (8 mm × 4 mm, 5 µm, Dikma). […] The flow rate was 1.0 mL/min. Elution peaks were monitored and the peak areas were used to calculate the compound concentrations.
(§9) Papp in AP-BL or BL-AP direction of each coumarin was calculated from the following equation: (2) Papp=dQ/dt·A·C0 [cm/s] where Q is the accumulation quantity of the compound in the receiver side (μmol), dQ/dt is the linear appearance rate of the compound in the receiver side (μmol/s), C0 is the initial concentration in the donor side (μM), and A is the surface area of the membrane insert (cm^2). Data were expressed as the mean ± SD.

[3] = test system: MDCK-pHaMDR cell monolayer; details: dog, 90 min, 50 µM, pH 7.4
Method: as §1, §2, §3, §4, §5, §6, §7

[4] = test system: MDCK-pHaMDR cell monolayer; assay: Cell accumulation and total recovery of coumarins in the bidirectional transport experiment; details: 50 µM, 90 min, percent of initial amount, n = 6
Method: as §1, §2, §3, §4, §5, §6, §7

[5] = test system: P-gp; assay: Rh123 intracellular accumulation in MDCK-pHaMDR cells with or without verapamil; type: cell-based; details: Rh123 10 µM
Method: The fluorescence at 485 nm (excitation wavelength) and 538 nm (emission wavelength) was determined on a Cary Eclipse Fluorescence spectrophotometer (Varian Inc., Palo Alto, CA, USA). To investigate intracellular accumulations of Rh123 as a probe substrate for P-gp, MDCK-pHaMDR cells were seeded on the 6 Wells plates at a density of about 1.0 × 10^5 cells/mL and grew for 48 h. Before the uptake experiments, cells were washed with PBS two times and pre-incubated with serum-free DMEM or 100 µM verapamil for 20 min. Rh123 with the final concentration of 10 µM was added, and cells were incubated with or without the presence of verapamil for 60 min at 37 °C. Then cells were washed with ice-cold PBS three times, and lysed with 0.1% (v/v) Triton X-100 for 15 min at 37 °C [33]. The fluorescence of Rh123 in cell lysates was determined as described above.

[6] = test system: P-gp; assay: in vitro; details: dog, not told
Method: The P-gp expression level in the MDCK-pHaMDR cell monolayer was examined by Rh123 transport and intracellular accumulation experiments. Rh123 (10 µM) bidirectional transports with or without the presence of verapamil (100 µM) were undertaken as described above, and the lyophilized permeation samples were dissolved in a proper volume of MeOH. The fluorescence at 485 nm (excitation wavelength) and 538 nm (emission wavelength) was determined on a Cary Eclipse Fluorescence spectrophotometer (Varian Inc., Palo Alto, CA, USA).

[7] = test system: MDCK-pHaMDR cell monolayer; assay: Bidirectional transport across MDCK-pHaMDR cell monolayer (in vitro BBB model); details: AP to BL; coumarins 50 µM, caffeine 10 µM, atenolol 200 µM; 90 min; mean ± S.D., n = 6
Method: as §1, §8, §9

[8] = MDCK-pHaMDR cell monolayer, pH 7.4, TR (Total recovery) AP→BL, AP→BL, 50 µM, 90 min, percent of initial amount, n = 6
[9] = MDCK-pHaMDR cell monolayer, pH 7.4, TR (Total recovery) BL→AP, BL→AP, 50 µM, 90 min, percent of initial amount, n = 6

Structure (SMILES) | recovery at 90 min, 50 µM [1, 8] | recovery at 90 min, 50 µM [1, 9] | Papp A→B at 90 min [2] | Papp B→A at 90 min, 50 µM [2] | efflux ratio at 90 min, 50 µM [2] | CA (Cell accumulation) AP→BL [4] | CA (Cell accumulation) BL→AP [4] | also measured
O=c1ccc2ccc(O)cc2o1 [Compound 1, umbelliferone] | 99.3 ± 1.59% | 96.7 ± 3.22% | 35.9 ± 2.28 ×10⁻⁶ cm/s | 32.8 ± 1.25 ×10⁻⁶ cm/s | – | – | – | –
COc1ccc2ccc(=O)oc2c1CC=C(C)C [Compound 2, osthol] | 105 ± 5.15% | 95.6 ± 1.75% | 23.8 ± 1.44 ×10⁻⁶ cm/s | 20.4 ± 3.04 ×10⁻⁶ cm/s | – | – | – | CA (Cell accumulation) AP→BL [3]: 6.96 ± 1.50%; CA (Cell accumulation) BL→AP [3]: 3.51 ± 0.68%
COc1cc2ccc(=O)oc2cc1O [Compound 3, scopoletin] | 87.5 ± 3.3% | 92.2 ± 3.16% | 37.1 ± 1.97 ×10⁻⁶ cm/s | 27.4 ± 3.51 ×10⁻⁶ cm/s | 0.96 | – | – | –
O=c1ccc2cc3ccoc3cc2o1 [Compound 7, psoralen] | 89.9 ± 6.49% | 94.7 ± 3.85% | 27.3 ± 2.35 ×10⁻⁶ cm/s | 26.8 ± 2.75 ×10⁻⁶ cm/s | 0.98 | 4.63 ± 0.13% | 1.79 ± 0.03% | –
COc1c2occc2cc2ccc(=O)oc12 [Compound 8, xanthotoxin] | – | – | – | – | – | – | – | recovery at 90 min, 50 µM ([1]; pH 7.4, TR (Total recovery) AP→BL, AP→BL, 50 µM, 90 min, percent of initial amount, n = 6): 95.2 ± 4.79%; recovery at 90 min, 50 µM ([1]; pH 7.4, TR (Total recovery) BL→AP, BL→AP, 50 µM, 90 min, percent of initial amount, n = 6): 88.7 ± 3.13%
COc1c2ccoc2cc2oc(=O)ccc12 [Compound 9, bergapten] | 99.15 ± 0.54% | 107 ± 1.19% | 43.6 ± 2.13 ×10⁻⁶ cm/s | 37.4 ± 5.81 ×10⁻⁶ cm/s | 0.86 | – | – | –
CC(C)=CCOc1c2ccoc2cc2oc(=O)ccc12 [Compound 10, isoimperatorin] | 90.2 ± 3.08% | 86.6 ± 2.89% | 7.29 ± 0.17 ×10⁻⁶ cm/s | 3.73 ± 0.33 ×10⁻⁶ cm/s | – | 5.38 ± 1.14% | 1.65 ± 0.36% | –
C/C=C(/C)C(=O)OC(C)(C)[C@@H]1Cc2c(ccc3ccc(=O)oc23)O1 [Compound 11, columbianadin] | 67.6 ± 5% | 64.1 ± 3.63% | 10.4 ± 0.95 ×10⁻⁶ cm/s | 7.12 ± 0.12 ×10⁻⁶ cm/s | – | 21.49 ± 4.56% | 9.44 ± 1.01% | recovery at 90 min, 50 µM ([1]; MDCK-pHaMDR cell monolayer, pH 7.4, recovery (both sides of the insert and intracellular), both directions): 64 to 68%
COC(=O)c1ccccc1-c1c2ccc(=N)cc-2oc2cc(N)ccc12 [Rh123, Rhodamine 123] | – | – | – | – | – | – | – | intracellular accumulation with verapamil relative to verapamil-absent group ([5]; 100 µM verapamil): 4.45 fold; Intracellular Accumulation Fluorescence Intensity ([5]; 60 min, without verapamil, n = 4): 34.51 ± 1.18; Papp A→B at 90 min, 10 µM ([6]; pH 7.4): 1.18 ± 0.056 ×10⁻⁶ cm/s; Papp B→A at 90 min, 10 µM ([6]; pH 7.4): 5.27 ± 0.209 ×10⁻⁶ cm/s; efflux ratio at 90 min, 10 µM ([6]; pH 7.4): 4.47 ± 0.24; efflux ratio at 90 min, 10 µM ([6]; pH 7.4, with verapamil 100 µM): 1.58
Cn1c(=O)c2c(ncn2C)n(C)c1=O [caffeine, reference compound] | – | – | 43.6 ×10⁻⁶ cm/s | – | – | – | – | Papp AP-BL [7]: 43.58 ± 4.86 ×10^−6 cm/s
